Assay results from patent US20240299698A1, “PREVENTION AND TREATMENT OF POST-OPERATIVE COGNITIVE DYSFUNCTION (POCD)” (Noetix Pharma LLC, priority 2022, published 2024).

Tests used:
mouse model of (POCD) = test: Morris water maze testing and probe trial in laparotomy mouse model of POCD; format: in vivo, Male C57BI/6 mice; settings: PSD7
Text: To induce POCD, mice were anesthetized with isoflurane and maintained at a surgical plane of anesthesia (2-2.5%). The abdomen was shaved and cleaned/disinfected with both betadine and ethanol (70%). A 1.5 cm vertical incision was made along the midline of the abdomen, perforating the skin and the peritoneal cavity. A sterile blunt probe was inserted into the cavity, and the abdominal viscera and musculature were manipulated for five minutes. Abdominal muscles and skin were sutured, polysporin and topical lidocaine were applied to the incision site, and buprenorphine (0.1 mg/kg s.c.) was administered. Animals were placed into a clean, pre-warmed home cage for recovery and housed singly thereafter.
Morris water maze testing is a well-established method for evaluating spatial learning and memory. To navigate this maze, the mouse must use extra-maze cues to locate a hidden platform and escape from the water. Testing was performed on PSD7. Mice were given two blocks of four 60 sec trials to find the hidden platform, with latency to reach the platform compared between blocks as a measure of learning/memory processes. Swim speed was evaluated to assess locomotor capabilities. On PSD8 (i.e., 24 hours later), mice were reintroduced into the maze without the platform present for a one-minute probe trial to assess reference memory.
The testing protocol was as follows: 1. The animal was brought into the testing room in a transfer cage. 2. Video recording was begun and the animal's ID card recorded. 3. The mouse was gently placed (i.e., not dropped) into the water at the appropriate start location (N, S, E, or W) facing the pool wall. 4. For 60 seconds, the mouse was allowed to locate and climb onto the submerged platform. If the mouse was unable to locate the platform within the allotted time, it was gently guided there and assigned a score of 61 seconds. 5. The mouse was allowed 60 seconds to recover on the platform and observe the extra-maze cues. If the moused jumped into the water, it was immediately retrieved and placed back on the platform for the remaining duration of the inter-trial interval. 6. Steps 3-5 were repeated for a total of 4 trials (Block 1). 7. The mouse was returned to the transfer cage lined with a dry towel. It was allowed 5 minutes to rest. 8 Steps 3-5 were repeated for a total of 4 trials (Block 2). 9. The mouse was gently dried and returned to its home cage.
The probe session was conducted as follows: 1. The animal was brought into the testing room in a transfer cage. 2. Video recording was begun and the animal's ID card recorded. 3. The mouse was gently placed (i.e., not dropped) into the water at the appropriate start location (N, S, E, or W) facing the pool wall. 4. The mouse was allowed to swim freely for 60 seconds. 5. The mouse was gently dried and returned to its home cage.

[1] = Macias-Barragan J, et al.; cited from earlier work

With `Cc1ccc(=O)n(-c2ccccc2)c1` [pirfenidone, 5-methyl-1-phenyl-2-(1H)-pyridone] the “latency to platform, overall (block x treatment)” value (mouse model of (POCD); Acute vs Disease Controls, p=0.028) was “statistically significant decrease in latency to platform”, the “latency to platform, Block 1” value (mouse model of (POCD); Acute vs Disease Controls, p=0.04, Tukey's HSD) was “found the platform faster than Disease Controls only” and the “decrease in time to platform between blocks (spatial memory)” value (mouse model of (POCD); Acute, p=0.61, paired t-test) was “not seen”. The “latency to platform, Block 1” value (mouse model of (POCD); Chronic compared to both Disease and Normal Controls, p=0.02 and p=0.03, Tukey's HSD) was “statistically significant decrease in latency to platform”, the “latency to platform, overall (block x treatment)” value (mouse model of (POCD); Chronic vs Disease Controls, p=0.052) was “statistically significant decrease in latency to platform” and the “decrease in time to platform between blocks (spatial memory)” value (mouse model of (POCD); Chronic, p=0.54, paired t-test) was “not seen”. For the same compound, the “latency to platform, Block 2, between groups” value (mouse model of (POCD); all groups, p=0.117, one-way ANOVA) was “no between groups main effect” and the “crossing of the blood brain barrier” value [1] was “can cross the blood brain barrier”.
